Values of other authors, collected in patent US20170368150A1, “METHODS OF TREATING PULMONARY SARCOIDOSIS” (GOTHAM BIOPHARMACEUTICALS, INC., priority 2014, published 2017).

How the values were obtained:
[1] = system: persons with pulmonary sarcoidosis; settings: clinical trials
sarcoidosis patients = settings: human, in vivo
[2] = system: people with uveal sarcoidosis; settings: in vivo

In the case of golimumab, the “efficacy in pulmonary sarcoidosis” value [1] is given as “failed to show any benefit”.

For Infliximab, the “efficacy in pulmonary sarcoidosis” value [1] is listed as “some success”.

In the case of Adalimumab, the “fraction of sarcoidosis patients with beneficial response” value (sarcoidosis patients) is given as “about half”.

For Etanercept, the “efficacy in uveal sarcoidosis” value [2] is listed as “failed to demonstrate any significant efficacy”.
